Experiment [1] relates to hyperperméabilité vasculaire induite par le zymosan. In words: Vascular hyperpermeability induced by zymosan (extravasation of albumin or Evans blue). The settings on record: oral administration of 1-20 mg/kg. The format is in vivo. The source says:
(§1) Pour l'étude in vivo, ils sont administrés par voie intra-veineuse sous forme de solution aqueuse pure, par voie intrapéritonéale sous forme de solution aqueuse contenant ou non du DMSO ou par voie orale en solution ou en suspension dans la carboxyméthylcellulose ou dans une solution aqueuse composée contenant du Tween^(R) et dans certains cas du DMSO (diméthylsulfoxyde).
La perméabilité vasculaire est étudiée in vivo et in vitro par la mesure de l'extravasation d'albumine ou de colorant liant l'albumine (Bleu Evans). In vivo, l'hyperperméabilité est induite par l'injection d'une solution d'histamine, de bradykinine ou de zymosan. Les modèles in vitro permettent de réaliser des hyperpressions (sur un territoire vasculaire isolé) et/ou des réactions vasculaires inflammatoires.
A titre illustratif, les composés des exemples 1, 3, 6 et 9 inhibent l'hyperperméabilité vasculaire induite par le zymosan après administration orale de 1-20 mg/kg.

A short description of experiment [2]: Free radical scavenging with DPPH as stable free radical. The format is physicochemical. The following applies: DPPH model, in vitro. The source says: (§2) Pour l'étude in vitro, les composés sont solubilisés en solution aqueuse pure ou contenant du DMSO ou de l'alcool.
L'effet "piégeur de radicaux libres" global est étudié in vitro par un modèle utilisant le 1,1-diphényl-2-picrylhydrazyl (DPPH) comme radical libre stable, méthode dérivée de celle décrite par Lamaison et col., Plantes Médic. et Phytothérapie, XXII, 1988, 231-234.
On the technique in general: The DPPH test is a chemical assay of radical scavenging.

A further experiment deals with veines saphènes de lapin. Briefly: Contraction of isolated rabbit saphenous vein rings produced by KCl (depolarisation). The settings on record: for augmentent les contractions des veines saphènes de lapin produites par le KCl: KCl 40 mM, compounds 10 nM à 30 mM; for EC50: increase of contractions produced by KCl 40 mM, read-out: DE₅₀.
From the text: as §2
L'effet contractile est mesuré in vitro : • par la force de contraction développée par des anneaux vasculaires quiescents ou stimulés (soit électriquement soit par des agents physiologiques) et maintenus dans des conditions isométriques, • par la pression développée par des réseaux vasculaires perfusés à débit constant.
Les composés de l'invention et leurs sels éventuels augmentent la contraction des veines saphènes animales produite par la noradrénaline et la dépolarisation (solution hyperpotassique) sans affecter, dans la majorité des cas, les réponses contractiles artérielles. A titre illustratif, les composés des exemples 2, 3, 4, 7, et 9 (10 nM à 30 mM) augmentent de plus de 40 % (DE₅₀ ± 0,3 microM) les contractions des veines saphènes de lapin produites par le KCl (40 mM).

Another experiment has as its system pleurésie chez le rat. In words: Carrageenan-induced pleurisy (oedema and leukocyte migration). Format: in vivo. The settings on record: 5 mg/kg i.p. given twice, 6 hours after carrageenan injection into the pleural cavity.
From the text: as §1
L'activité antiinflammatoire est démontrée par la mesure de l'inhibition de l'oedème et de la migration leucocytaire après induction d'une pleurésie chez le rat par injection de carragénine dans la cavité pleurale (Almeida et col., J. Pharmacol. Exp. Therap., 1980, 214 : 74).
Le composé des exemples 3 et 4 administrés deux fois en i.p. à la dose de 5 mg/kg inhibent l'oedème et la migration leucocytaire dans la cavité pleurale, 6 heures après injection de carragénine dans le modèle de la pleurésie chez le rat.
(In general: In the carrageenan paw model, swelling and tenderness develop within hours.)

Where a name gives a salt, the structure may show the parent alone. A value given as a limit tells only on which side of the number the result lay.

With `O=C(NN=c1c(=O)c2ccccc2c1=O)c1cccnc1` [exemple 6, 2.3-Dihydro-1.3-dioxo-2-[(3-pyridyl)carbonylhydrazono]-1H-indene, maleate], the “hyperperméabilité vasculaire induite par le zymosan” value in experiment [1] is listed as “inhibent”. For the same compound, in experiment [2], the effet antiradicalaire result is recorded as “présentent un effet antiradicalaire”.
In the case of `O=C(NN=c1c(=O)c2ccccc2c1=O)c1cccnc1` [exemple 2, 2.3-Dihydro-1.3-dioxo-2-[(3-pyridyl)carbonylhydrazono]-1H-indene, chlorhydrate], in the experiment with veines saphènes de lapin, the “augmentent les contractions des veines saphènes de lapin produites par le KCl” value was > 40% and the EC50 was ~300 nM.
Regarding `O=C(NN=c1c(=O)c2ccccc2c1=O)n1cccc1` [exemple 1, 2.3-Dihydro-1.3-dioxo-2-(pyrrol-1-yl-carbonylhydrazono)-1H-indene], the “hyperperméabilité vasculaire induite par le zymosan” value in experiment [1] is “inhibent”.
As for `Nc1ccc(C(=O)NN=c2c(=O)c3ccccc3c2=O)cc1` [exemple 3, 2-(4-Aminophenylcarbonylhydrazono)-2.3-dihydro-1.3-dioxo-1H-indene, chlorhydrate], the “hyperperméabilité vasculaire induite par le zymosan” value in experiment [1] is listed as “inhibent”. Moreover, in the experiment on veines saphènes de lapin, the “augmentent les contractions des veines saphènes de lapin produites par le KCl” value was > 40% and the EC50 was ~300 nM. In the experiment on pleurésie chez le rat, the “migration leucocytaire dans la cavité pleurale” value is given as “inhibent” and the oedème entry is on record as “inhibent”.

For the origin of these results see patent publication EP0650958A1, “Hydrazones of indane-triones and their application in therapy” (LABORATOIRE INNOTHERA Société Anonyme, priority 1993, dated 1995).
